Results: patent US7521396B2, “Substituted (thioxo)carbonylaminophenyluracils” (Bayer CropScience AG, priority 2002, dated 2009)
Marks after values point to notes of the source that are not given here.

Tested on: not listed separately
Assay: logP by HPLC on reversed-phase column (C 18), EEC Directive 79/831 Annex V.A8
Type: physicochemical
Settings: not given

Structure (SMILES)	logP
CCN(C(=O)N(C)OC)c1cc(-n2c(=O)cc(C(F)(F)F)n(C)c2=O)c(F)cc1Cl [Example 111]	logP = 2.80^a)
C#CCN(C(=O)N(C)OC)c1cc(-n2c(=O)cc(C(F)(F)F)n(C)c2=O)c(F)cc1Cl [Example 108]	logP = 2.75^a)
CN1CCN(C(=O)Nc2cc(-n3c(=O)cc(C(F)(F)F)n(C)c3=O)c(F)cc2Cl)C1=O [Example 51]	logP = 2.52^a)
COC(=O)[C@@H]1CCCN1C(=O)Nc1cc(-n2c(=O)cc(C(F)(F)F)n(C)c2=O)c(F)cc1Br [Example 33]	logP = 2.52^a)
Cn1c(C(F)(F)F)cc(=O)n(-c2cc(NC(=O)SC3=NCCS3)c(Br)cc2F)c1=O [Example 16]	logP = 3.53^a)
COC(=O)CSC(=O)Nc1cc(-n2c(=O)cc(C(F)(F)F)n(C)c2=O)c(F)cc1Cl [Example 14]	logP = 2.55^a)
CCON(C)C(=O)Nc1cc(-n2c(=O)cc(C(F)(F)F)n(C)c2=O)c(F)cc1Br [Example 69]	logP = 3.06^a)
CCOC(=O)CSC(=O)Nc1cc(-n2c(=O)cc(C(F)(F)F)n(C)c2=O)c(F)cc1Cl [Example 13]	logP = 2.80^a)
CCOC(=O)CSC(=O)Nc1cc(-n2c(=O)cc(C(F)(F)F)n(C)c2=O)c(F)cc1Br [Example 18]	logP = 2.90^a)
Cn1c(C(F)(F)F)cc(=O)n(-c2cc(NC(=O)N3CCC4(CC3)OCCO4)c(Cl)cc2F)c1=O [Example 84]	logP = 2.29^a)
CC(=O)NC1CCN(C(=O)Nc2cc(-n3c(=O)cc(C(F)(F)F)n(C)c3=O)c(F)cc2Br)C1 (stereo not drawn) [Example 95]	logP = 1.80^a)
CCOC(=O)C1CCN(C(=O)Nc2cc(-n3c(=O)cc(C(F)(F)F)n(C)c3=O)c(F)cc2Br)CC1 [Example 36]	logP = 2.88^a)
Cn1c(C(F)(F)F)cc(=O)n(-c2cc(NC(=O)N3CCCCCC3)c(Br)cc2F)c1=O [Example 99]	logP = 3.10^a)
CCOC(=O)C(C)SC(=O)Nc1cc(-n2c(=O)cc(C(F)(F)F)n(C)c2=O)c(F)cc1Br (stereo not drawn) [Example 17]	logP = 3.15^a)
Cn1c(C(F)(F)F)cc(=O)n(-c2cc(NC(=O)N3CCCCO3)c(Br)cc2F)c1=O [Example 63]	logP = 2.96^a)
CCOC(=O)CONC(=O)Nc1cc(-n2c(=O)cc(C(F)(F)F)n(C)c2=O)c(F)cc1Cl [Example 104]	logP = 2.58^a)
CCN(OC)C(=O)Nc1cc(-n2c(=O)cc(C(F)(F)F)n(C)c2=O)c(F)cc1Br [Example 75]	logP = 3.01^a)
CCOC(=O)CONC(=O)Nc1cc(-n2c(=O)cc(C(F)(F)F)n(C)c2=O)c(F)cc1Br [Example 105]	logP = 2.62^a)
CN1CCCN(C(=O)Nc2cc(-n3c(=O)cc(C(F)(F)F)n(C)c3=O)c(F)cc2Cl)C1=O [Example 56]	logP = 2.76^a)

Structure (SMILES)	logP
CCOC(=O)C1CCCN(C(=O)Nc2cc(-n3c(=O)cc(C(F)(F)F)n(C)c3=O)c(F)cc2Cl)C1 (stereo not drawn) [Example 43]	logP = 2.93^a)
Cn1c(C(F)(F)F)cc(=O)n(-c2cc(NC(=O)N3CCC(O)CC3)c(Cl)cc2F)c1=O [Example 117]	logP = 1.77^a)
CCOC(=O)N1CCN(C(=O)Nc2cc(-n3c(=O)cc(C(F)(F)F)n(C)c3=O)c(F)cc2Cl)CC1 [Example 96]	logP = 2.43^a)
CCOC(=O)COC(=O)Nc1cc(-n2c(=O)cc(C(F)(F)F)n(C)c2=O)c(F)cc1Cl [Example 126]	logP = 2.74^a)
Cn1c(C(F)(F)F)cc(=O)n(-c2cc(NC(=O)N3CCC(O)C3)c(Cl)cc2F)c1=O (stereo not drawn) [Example 113]	logP = 1.72^a)
CC1CN(C(=O)Nc2cc(-n3c(=O)cc(C(F)(F)F)n(C)c3=O)c(F)cc2Br)CC(C)O1 (stereo not drawn) [Example 120]	logP = 2.55^a)
Cn1c(C(F)(F)F)cc(=O)n(-c2cc(NC(=O)N3CCC4(CC3)OCCCO4)c(Cl)cc2F)c1=O [Example 86]	logP = 2.29^a)
CON(C)C(=O)N(C)c1cc(-n2c(=O)cc(C(F)(F)F)n(C)c2=O)c(F)cc1Cl [Example 77]	logP = 2.53^a)
Cn1c(C(F)(F)F)cc(=O)n(-c2cc(NC(=O)N3CCCS3(=O)=O)c(Br)cc2F)c1=O [Example 103]	logP = 2.41^a)
Cn1c(C(F)(F)F)cc(=O)n(-c2cc(NC(=O)N3CCCCCC3)c(Cl)cc2F)c1=O [Example 98]	logP = 3.02^a)
CCON(CC)C(=O)Nc1cc(-n2c(=O)cc(C(F)(F)F)n(C)c2=O)c(F)cc1Cl [Example 71]	logP = 3.35^a)
COC(=O)CSC(=O)Nc1cc(-n2c(=O)cc(C(F)(F)F)n(C)c2=O)c(F)cc1Br [Example 19]	logP = 2.59^a)
CCN(OC)C(=O)Nc1cc(-n2c(=O)cc(C(F)(F)F)n(C)c2=O)c(F)cc1Cl [Example 74]	logP = 2.93^a)
Cn1c(C(F)(F)F)cc(=O)n(-c2cc(NC(=O)N3CCC4(CC3)OCCO4)c(Br)cc2F)c1=O [Example 85]	logP = 2.35^a)
CCN1CCN(C(=O)Nc2cc(-n3c(=O)cc(C(F)(F)F)n(C)c3=O)c(F)cc2Cl)C1=O [Example 53]	logP = 2 2.81^a)
CCOC(=O)C(C)SC(=O)Nc1cc(-n2c(=O)cc(C(F)(F)F)n(C)c2=O)c(F)cc1Cl (stereo not drawn) [Example 12]	logP = 3.11^a)
CCOC(=O)N1CCN(C(=O)Nc2cc(-n3c(=O)cc(C(F)(F)F)n(C)c3=O)c(F)cc2Br)CC1 [Example 97]	logP = 2.47^a)
CC(=O)NC1CCN(C(=O)Nc2cc(-n3c(=O)cc(C(F)(F)F)n(C)c3=O)c(F)cc2Cl)C1 (stereo not drawn) [Example 94]	logP = 1.74^a)
Cn1c(C(F)(F)F)cc(=O)n(-c2cc(NC(=O)N3CCOCC3)c(Br)cc2F)c1=O [Example 41]	logP = 2.16^a)

Structure (SMILES)	logP
CCOC(=O)CN(C)C(=O)Nc1cc(-n2c(=O)cc(C(F)(F)F)n(C)c2=O)c(F)cc1Br [Example 122]	logP = 2.54^a)
CCON(CC)C(=O)Nc1cc(-n2c(=O)cc(C(F)(F)F)n(C)c2=O)c(F)cc1Br [Example 72]	logP = 3.41^a)
Cn1c(C(F)(F)F)cc(=O)n(-c2cc(NC(=O)N3CCC4(CC3)OCCCO4)c(Br)cc2F)c1=O [Example 87]	logP = 2.35^a)
CC1CN(C(=O)Nc2cc(-n3c(=O)cc(C(F)(F)F)n(C)c3=O)c(F)cc2Cl)CC(C)O1 (stereo not drawn) [Example 119]	logP = 2.50^a)
CCOC(=O)COC(=O)Nc1cc(-n2c(=O)cc(C(F)(F)F)n(C)c2=O)c(F)cc1Br [Example 125]	logP = 2.79^a)
Cn1c(C(F)(F)F)cc(=O)n(-c2cc(NC(=O)N3CCCS3(=O)=O)c(Cl)cc2F)c1=O [Example 102]	logP = 2.38^a)
Cn1c(C(F)(F)F)cc(=O)n(-c2cc(NC(=O)N3CCCCO3)c(Cl)cc2F)c1=O [Example 62]	logP = 2.89^a)
CCOC(=O)CN(C)C(=O)Nc1cc(-n2c(=O)cc(C(F)(F)F)n(C)c2=O)c(F)cc1Cl [Example 121]	logP = 2.48^a)
CCOC(=O)C1CCCN(C(=O)Nc2cc(-n3c(=O)cc(C(F)(F)F)n(C)c3=O)c(F)cc2C#N)C1 (stereo not drawn) [Example 133]	logP = 2.70^a)
CCOC(=O)C(C)(C)ONC(=O)Nc1cc(-n2c(=O)cc(C(F)(F)F)n(C)c2=O)c(F)cc1Br [Example 101]	logP = 3.16^a)
Cn1c(C(F)(F)F)cc(=O)n(-c2cc(NC(=O)N3CCC(O)CC3)c(Br)cc2F)c1=O [Example 118]	logP = 1.81^a)
CCOC(=O)C(C)OC(=O)Nc1cc(-n2c(=O)cc(C(F)(F)F)n(C)c2=O)c(F)cc1Cl (stereo not drawn) [Example 127]	logP = 2.74^a)
COC(=O)[C@@H]1CCCN1C(=O)Nc1cc(-n2c(=O)cc(C(F)(F)F)n(C)c2=O)c(F)cc1Cl [Example 34]	logP = 2.46^a)
CCOC(=O)C(C)(C)ONC(=O)Nc1cc(-n2c(=O)cc(C(F)(F)F)n(C)c2=O)c(F)cc1Cl [Example 100]	logP = 3.11^a)
Cn1c(C(F)(F)F)cc(=O)n(-c2cc(NC(=O)SC3=NCCS3)c(Cl)cc2F)c1=O [Example 11]	logP = 3.50^a)
CCON(C)C(=O)Nc1cc(-n2c(=O)cc(C(F)(F)F)n(C)c2=O)c(F)cc1Cl [Example 68]	logP = 2.99^a)
CCOC(=O)C1CCN(C(=O)Nc2cc(-n3c(=O)cc(C(F)(F)F)n(C)c3=O)c(F)cc2Cl)CC1 [Example 42]	logP = 2.84^a)
CON(C)C(=O)N(c1cc(-n2c(=O)cc(C(F)(F)F)n(C)c2=O)c(F)cc1Cl)S(C)(=O)=O [Example 109]	logP = 2.56^a)

Same assay, conditions: a) acidic range: 0.1% aqueous phosphoric acid, acetonitrile gradient; 43° C.

Structure (SMILES)	logP
Cn1c(C(F)(F)F)cc(=O)n(-c2cc(NC(=O)N3CCC(=O)CC3)c(Br)cc2F)c1=O [Example 93]	logP = 1.97^a)
C=CCN(C(=O)N(C)OC)c1cc(-n2c(=O)cc(C(F)(F)F)n(C)c2=O)c(F)cc1Cl [Example 106]	logP = 2.96^a)
Cn1c(C(F)(F)F)cc(=O)n(-c2cc(NC(=O)N3CCC(=O)CC3)c(Cl)cc2F)c1=O [Example 92]	logP = 1.93^a)
Cn1c(C(F)(F)F)cc(=O)n(-c2cc(NC(=O)NCCC#N)c(Cl)cc2F)c1=O [Example 15]	logP = 2.06^a)

Same assay, conditions: reversed-phase C18 HPLC column, pH 2

Structure (SMILES)	chromatographic logP
CCOC(=O)C1CCCN(C(=O)Nc2cc(-n3c(=O)cc(C(F)(F)F)n(C)c3=O)c(F)cc2Br)C1 (stereo not drawn) [Example 1, ethyl 1-[2-bromo-4-fluoro-5-(3-methyl-2,6-dioxo-4-trifluoromethyl-3,6-dihydro-2H-pyrimidin-1-yl)phenylcarbamoyl]piperidine-3-carboxylate]	2.98

Tested on: weeds
Assay: Post-emergence test (Example B), damage to weeds
Type: in vivo
Settings: test plants of 5-15 cm sprayed, rated after three weeks
Protocol: To produce a suitable preparation of active compound, 1 part by weight of active compound is mixed with the stated amount of solvent, the stated amount of emulsifier is added and the concentrate is diluted with water to the desired concentration.
Test plants of a height of 5-15 cm are sprayed with the preparation of active compound such that the particular amounts of active compound desired are applied per unit area. The concentration of the spray liquor is chosen such that the particular amounts of active compound desired are applied in 1000 l of water/ha.
After three weeks, the degree of damage to the plants is rated in % damage in comparison to the development of the untreated control.
The figures denote: • 0%=no effect (like untreated control) • 100%=total destruction

Structure (SMILES)	activity against weeds (degree of damage)
COC(=O)[C@@H]1CCCN1C(=O)Nc1cc(-n2c(=O)cc(C(F)(F)F)n(C)c2=O)c(F)cc1Br [Example 33]	strong activity
CCOC(=O)C1CCN(C(=O)Nc2cc(-n3c(=O)cc(C(F)(F)F)n(C)c3=O)c(F)cc2Br)CC1 [Example 36]	strong activity
Cn1c(C(F)(F)F)cc(=O)n(-c2cc(NC(=O)N3CCOCC3)c(Br)cc2F)c1=O [Example 41]	strong activity
COC(=O)[C@@H]1CCCN1C(=O)Nc1cc(-n2c(=O)cc(C(F)(F)F)n(C)c2=O)c(F)cc1Cl [Example 34]	strong activity
CCOC(=O)C1CCN(C(=O)Nc2cc(-n3c(=O)cc(C(F)(F)F)n(C)c3=O)c(F)cc2Cl)CC1 [Example 42]	strong activity
